According to PMC12040169 (PLOS Biology, 2025):
In brackets after ≈: the same amount, converted by molar mass.

Key:
in vitro = experiment: in vitro; parameters: Viability of infected HeLa host cells, resazurin conversion, bulk resorufin fluorescence relative to DMSO; conditions: human, hela cells; bulk resorufin, mean of 3
[1] = test system: T1, CTL2-GFP (C. trachomatis L2/434/Bu, GFP-expressing); experiment: microbe, parasite or virus in culture; parameters: species or system HeLa; C. trachomatis growth in HeLa, dose-response, mean of bulk GFP fluorescence and imaged total inclusion area; conditions: Chlamydia trachomatis, 28.5 h; mean of GFP and inclusion area
T1 construct: L2/434/Bu, GFP-expressing
In short: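 Infected cells treated with library compounds were read for bulk GFP (chlamydial growth) and resorufin fluorescence (host viability), then fixed, Hoechst-stained and imaged. Inclusion area and number from GFP, plus nuclei counts, served as additional growth and viability proxies; MICs derived as previously described.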

[2] = test system: T1, CTL2-GFP (C. trachomatis L2/434/Bu, GFP-expressing); experiment: microbe, parasite or virus in culture; parameters: C. trachomatis growth in HeLa, dose-response, mean of bulk GFP fluorescence and imaged total inclusion area; conditions: Chlamydia trachomatis, HeLa, 28.5 h; mean of GFP and inclusion area
Excerpt: We screened a library of 36,785 small molecules displaying drug-like properties and covering a wide chemical space (Fig 1A and S2A Data). In this process, we also complemented the assay described above with an imaging-based readout (Fig 1B). After measurements of bulk GFP and resorufin fluorescence, cells were fixed, stained with the DNA dye Hoechst, and imaged at a high-content imaging platform to detect chlamydial inclusions (GFP) and host cell nuclei (Hoechst). The total area and number of inclusions in individual wells and the number of nuclei then served as additional proxies for chlamydial growth and host cell viability. […] MICs were calculated as described above.

| Compound | viability at 28.5 h, 0.000416667 µM (in vitro) [%] | viability at 28.5 h, 0.00125 µM (in vitro) [%] | viability at 28.5 h, 0.00375 µM (in vitro) [%] | viability at 28.5 h, 0.0123333 µM (in vitro) [%] | viability at 28.5 h, 0.037 µM (in vitro) [%] | viability at 28.5 h, 0.111 µM (in vitro) [%] | viability at 28.5 h, 0.333 µM (in vitro) [%] | viability at 28.5 h, 1 µM (in vitro) [%] | viability at 28.5 h, 3 µM (in vitro) [%] | viability at 28.5 h, 10 µM (in vitro) [%] | viability at 28.5 h, 30 µM (in vitro) [%] | MIC [1] [µM] | IC50 [2] [µM] |
| --- | --- | --- | --- | --- | --- | --- | --- | --- | --- | --- | --- | --- | --- |
| COc1cccc(CNC(C(=O)O)c2ccc3c(c2)OCO3)c1 (stereo not shown) [c40e] | 109 | 98.4 | 103 | 95.7 | 99.4 | 102 | 103 | 104 | 103 | 99.7 | 89.7 | 10.8 (≈ 3.42 µg/mL) | 4.96 |
| CC(Cc1nc(-c2nccn2C)cs1)n1cc(Cl)cn1 (stereo not shown) [c14e] | 104 | 110 | 107 | 105 | 103 | 106 | 103 | 111 | 108 | 110 | 110 | 3.65 (≈ 1.12 µg/mL) | 1.03 |
| CN(C(=O)c1ccc(Cl)c(Cl)c1)[C@H]1CCC[C@H]1N1CCCC1 [c12e] | 93 | 89.3 | 91.4 | 89 | 88.9 | 92.8 | 88.7 | 89 | 85.2 | 92.7 | 82.8 | 1.7 (≈ 0.581 µg/mL) | 1.02 |
| Oc1c(CN2CCN(c3ccc(F)cc3)CC2)cc(Br)c2cccnc12 [c43e] | 97.2 | 91.7 | 92.6 | 88.5 | 91.8 | 86.8 | 90 | 86.1 | 88.5 | 84.3 | 85.2 | 9.58 (≈ 3.99 µg/mL) | 5.48 |
| FC(F)(F)CCN1CCC2(CC1)NCCc1c2[nH]c2ccc(Cl)cc12 [c34e] | 86.8 | 91.2 | 88.2 | 90.3 | 88.5 | 93.2 | 89.1 | 91.8 | 88.3 | 93.9 | 71.8 | 11.9 (≈ 4.42 µg/mL) | 3.31 |
| Cn1cc(C(c2ccc(OCC(=O)O)cc2)c2cn(C)c3ccccc23)c2ccccc21 [c48e] | 87.9 | 89.6 | 87.2 | 88.7 | 88.5 | 89.5 | 89.6 | 93.9 | 93.8 | 97.6 | 87.9 | 8.4 (≈ 3.56 µg/mL) | 6.69 |
| O=C(CSc1nnc(-c2cccnc2)o1)c1ccccc1 [c35e] | 99.4 | 96.5 | 91.9 | 91.4 | 87 | 90.5 | 87 | 90.5 | 84.4 | 87 | 88.7 | 11.9 (≈ 3.54 µg/mL) | 3.71 |
